{
  "source": "patent US20030190368A1",
  "about": "“METHODS OF DIAGNOSIS AND TRIAGE USING CELL ACTIVATION MEASURES” (priority 1998, published 2003)",
  "molecules": {"B1": {"name": "trypsinogen: trypsin precursor from bovine pancreas (protein, UniProt P00760 18-246, looked up)", "pro-form": "VDDDDKIVGGYTCGANTVPYQVSLNSGYHFCGGSLINSQWVVSAAHCYKSGIQVRLGEDNINVVEGNEQFISASKSIVHPSYNSNTLNNDIMLIKLKSAASLNSRVASISLPTSCASAGTQCLISGWGNTKSSGTSYPDVLKCLKAPILSDSSCKSAYPGQITSNMFCAGYLEGGKDSCQGDSGGPVVCSGKLQGIVSWGSGCAQKNKPGVYTKVCNYVSWIKQTIASN", "modifications": "pro-form", "notes": "trypsin precursor from bovine pancreas"}, "B2": {"name": "trypsin: serine protease, Type 11-S from porcine pancreas (protein, UniProt P00761 9-231, looked up)", "Trypsin": "IVGGYTCAANSIPYQVSLNSGSHFCGGSLINSQWVVSAAHCYKSRIQVRLGEHNIDVLEGNEQFINAAKIITHPNFNGNTLDNDIMLIKLSSPATLNSRVATVSLPRSCAAAGTECLISGWGNTKSSGSSYPSLLQCLKAPVLSDSSCKSSYPGQITGNMICVGFLEGGKDSCQGDSGGPVVCNGQLQGIVSWGYGCAQKNKPGVYTKVCNYVNWIQQTIAAN"}},
  "assay_type_in_all_cases": "cell-based",
  "key": {"human neutrophils [1]": {"test_system": "human neutrophils", "test": "Lucigenin-enhanced superoxide chemiluminescence of human plasma / isolated neutrophils", "details": "for superoxide chemiluminescence of isolated neutrophils alone (no plasma): neutrophils in PBS, fMLP 10^-6 M, PAF 10^-6, homogenate 1 ml; for chemiluminescence in cell-free plasma: plasma filtered 1 um; for plasma chemiluminescence activation by pancreatic proteases: trypsin 1000 U/ml, chymotrypsin 100 U/ml, 155×10^3 neutrophils/ml plasma", "procedure": "Human blood was collected in heparinized Vacutainer tubes (10 ml) and centrifuged at 500 G for 10 minutes. Plasma was collected and 3 ml were mixed with lucigenin (N,N′-dimethyl-9,9′-bisacridinium […]) (Sigma Chemical CO., St. Louis, Mo.) (1 ml of a 1 mM stock solution in deinozed water, final concentration […], near optimal concentration as determined by Ohoi, et al (26)) for each measurement in small petri dishes (60 mm diameter). In later modifications of the test, a 25 mm diameter polyurethane disk was placed inside the petri dishes to reduce the vessel diameter, and subsequently, the reagent requirements to 1 ml plasma mixed with 0.75 ml lucigenin (1 mM stock solution) and only 100 μl of an activator. […] Six Vacutainer tubes were normally collected from healthy volunteers. This volume gives approximately 8 measurements using the original configuration (3 ml plasma/measurement) and up to 25 measurements with the modified system (1 ml/measurement). When measuring whole blood samples, 3 ml of whole blood were subsitituted for 3 ml of plasma.\nA standard neutrophil isolation procedure was used as described in Example 2 or pseudopod formation tests. Human blood from healthy volunteers (approximately 60 ml) was collected in heparinized Vacutainer tubes and transferred to a 60 ml syringe where it was sedimented on ice for 40-60 minutes. It is important that heparin and not EDTA ([…]) be used as an antocoagulant, since the calcium-chelating properties of EDTA can suppress neutrophil activation. The neutrophil-rich plasma layer was collected and layered onto 3.5 ml Histopaque (Sigma Diagnostics, St. Louis, Mo.) in 12 ml polypropylene centrifuge tubes (17×100 mm, Falcon, Shrewsbury, Mass.) and centrifuged at 600 G for 20 minutes. The sedimented neutrophils and red blood cells were then gently resuspended in 2 ml PBS (phosphate buffer solution). The resuspeneded cells were carefully layered onto 2.5 ml of a 55% isotonic Percoll solution (Sigma Diagnostics, St. Louis, Mo.) and 2.5 ml of a 74% isotonic Percoll solution in deionized water. This suspension was centrifuged at 600 G for 15 minutes and the middle granulyte layer was removed and resuspended in PBS to achieve a concentration of 10^6 neutrophils/ml.\nFor standard plasma measurements (e.g., low molecular weight fractions and whole pancreatic homogenates) human blood from healthy volunteers (approximately 60 ml) was collected in heparinized Vacutainer tubes and centrifuged for 10 minutes at 500 g. The plasma layer, including the buffy coat was carefully decanted using a steril transfer pipette. This fraction was then warmed to room temperature and plasma measurements were obtained. Plasma was diluted with sterile saline to achieve a plasma neutrophil concentration of 120×10^3 neutrophil/ml.\nFor experiments with different plasma concentrations versus neotrophil activators, measurements were made using isolated neutrophils, isolated neutrophils in 10% and 30% autologous plasma, and neutrophil-free plasma (filtered with 1 um filter and verified by cell count).\nCell-free plasma was obtained by filtering sedimented plasma through a 1 um filter (Whatman 6780-2510, Swedesboro, N.J.). The filtered plasma was visually verified to be cell free by placing an aliquot on a microscope slide and examining in detail at 400×. For experiments with different percentages of added plasma, 5 ml total volumes were made consisting of 1 ml lucigenin (1 mM), 1 ml activator, and either 3 ml suspended neutrophils, 2 ml suspended neutrophils plus 1 ml cell-free plasma mixed in PBS necessary for either 10% or 30% total plasma concentration, or 3 ml cell-free plasma. Activators (1 ml) were added via an injection port to the mixture at time t=0 seconds. […]"}, "[2]": {"test_system": "isolated naive human neutrophils", "test": "Pseudopod formation test: protease inhibitors against pancreatic homogenate-induced neutrophil activation", "details": "for percent neutrophil pseudopod formation (activation) by rat pancreatic homogenate in presence of protease inhibitor: neutrophils preincubated 10 min with inhibitor (PMSF 1 mM; Complete 1 tablet/20 ml; Benzamidine 1150 μM; Futhan 0.1 mg/ml; aprotinin 20 μM), then homogenate 10 min, homogenate alone 85.1±11.5%", "procedure": "(§1) For the pseudopod assay, venous blood is collected in heparinized tubes from healthy human volunteers and put on ice. It is important that heparin and not EDTA ([…]) be used as an anticoagulant, as the calcium-chelating properties of EDTA can affect neutrophil activation. […] Other chemicals for the Krebs-Henseleit buffer are from Fisher Scientific, Fair Lawn, N.J. The resuspended cells are then gently layered onto 2.5 ml of a 55% isotonic Percoll (Sigmal Chemical Company) solution and 2.5 ml of a 74% isotonic Percoll solution in deionized water. The suspension is centrifuged for 15 minutes at 600 G and the middle granulocyte layer is removed and resuspended in PBS to achieve a concentration of 10^6 neutrophils/ml. 100 μl aliquots of suspended neutrophils are added to 100 μl of test plasma or activating agent. This mixture is mixed and then incubated for 10 minutes at 27° C. After incubation 100 μl of 3% glutaraldehyde (Fisher Scientific) is added to stop the reaction. 100 μl of crystal violet in phosphate (pH: 7.4) buffer is then added to stain leukocyte nuclei on wet mount preparations. Freely suspended neutrophils with pseudopodia are identified by their segmented nuclei and the presence of cytoplasmic granules. One hundred neutrophils are counted. Cells with pseudopod projection greater than about 1 um are considered positive.\nRat homogenate was collected as described in detail in Example 5. Briefly, male Wistar rats (250-350 gm) were housed in a controlled environment and maintained on a standard pellet diet for at least three days before initiation of experimental procedures. Animals were cannulated via the femoral arteries and vein under general anesthesia using pentobarbital (50 mg/kg i.m.). The rats were exsanguinated and the heart, liver, spleen, small intestine, and pancreas removed. The organs were immediately washed and cleaned in cold 0.25 M sucrose solution. Then, the cleaned organs were vigorously homogenized in Krebs-Henseleit solution ([…]). Aliquots were filtered by centrifugation at 500 G for 10 min. Pancreatic homogenates were incubated for 2.5 hours at 38° C., stirred frequently. Incubated pancreatic homogenate as well as controls were tested against naive human donor neutrophils for pseudopod formation as described in Example 2.\nTo determine whether or not neutrophil activation by pancreatic homogenate is protease dependent, the pseudopod formation test was repeated by preincubation of isolated neutrophils with various protease inhibitors (50 μl) for 10 minutes followed by addition of pancreas homogenate (50 μl) and further incubation for 10 minutes. […] All protease inhibitors were the gift of Dr. Tony E. Hugli of The Scripps Clinic and Research Institute, with the exception of Complete™, an all-purpose protease inhibitor purchased from Boehringer Mannheim, Indianapolis, Ind. One of the components of Complete™ is EDTA (ethylenediaminetetra-acetic acid), a standard anti-coagulant and divalent cation chelator.\nTo determine whether the protease inhibitors were acting on the pancreatic homogenate or the neutrophils themselves, a new set of neutrophil pseudopod experiments was carried out. […] Appropriate controls were recorded as well as a positive control (10^−7 M fMLP) to determine the washed cells' ability to respond to stimuli. Formyl-methionyl-leucyl-phenylalanine (fMLP) was obtained from Sigma Chemical Company, St. Louis, Mo."}, "human neutrophils [3]": {"test_system": "human neutrophils", "test": "Neutrophil PAF inhibition experiments (pseudopod formation)"}, "[4]": {"test_system": "isolated naive human neutrophils", "test": "Pseudopod formation test: neutrophil activation by organ homogenates, fractions and proteases", "details": "for percent pseudopod formation, control solution incubated with the additive alone (no organ homogenate): Krebs-Henseleit control incubated with additive at the same concentration, control activation 10.5±2.5%; for direct neutrophil activation by proteases / zymogen fragments (in words): pseudopod formation", "procedure": "as §1\nThe organ homogenization procedure was similar to the method of Lefer (Glenn et al. (1971) Circ Res 29:338-349, Lefer (1973) Am J. Physiol 224:824-831). Male Wistar rats (250-350 gm) were housed in a controlled environment and maintained on standard pellet diet for at least three days before initiation of experimental procedures. Animals were cannulated via the femoral arteries and vein under general anesthesia using phenobarbital (50 mg/kg i.m.) No heparin was injected other than that needed to ensure open catheter lines (10 U/ml plasma-Lyte). A central incision was made over the abdomen. The rats were exsanguinated and the heart, liver, spleen, small intestine, and pancreas were removed. In two animals a kidney and adrenal gland were removed as well. They were immediately washed and cleaned in cold 0.25 M sucrose solution. The cleaned organs were vigorously homogenized in Krebs-Henseleit solution (1:3 w/v). Homogenate was then further diluted in Krebs-Henseleit solution (1:2 v/v). Aliquots were filtered by centrifugation at 500 G for 10 min and a sample aliquot was stored at 4° C. until assayed. The other fraction was incubated for 2.5 hours at 38° C. with mild stirring and stored at 4° C. until assayed. Incubation of tissue homogenates for this time period at a moderate temperature enhances any enzymatic activity that may be necessary in order to produce a neutrophil activation product. The incubated and non-incubated organ homogenates as well as controls were tested against naive human donor leukocytes for pseudopod formation tests and on whole rat donor blood for the NBT assay. Pseudopod determination was carried out as described in Example 2 using isolated neutrophils in D-PAS combined with homogenate in a 4:1 ratio. Nitroblue tetrazolium reduction by leukocytes due to superoxide in rat homogenate assays was also tested using the NBT procedure described in Example 2, with the application of 25 μl of homogenate to donor blood. The NBT assays for porcine homogenate activity were measured using the slightly modified NBT protocol with the crystal violet stain, also detailed in Example 2. […]"}},
  "data": [
    {"molecule": "1-O-alkyl-2-acetyl-sn-glycero-3-phosphocholine [PAF]", "values": [
      {"measurement": "superoxide chemiluminescence of isolated neutrophils alone (no plasma)", "setting": "human neutrophils [1]", "result": "likewise unreactive"},
      {"measurement": "chemiluminescence in cell-free plasma", "setting": "human neutrophils [1]", "result": "unreactive"}
    ]},
    {"molecule": "N=C(N)c1ccccc1", "note": "[Benzamidine]", "values": [
      {"measurement": "percent neutrophil pseudopod formation (activation) by rat pancreatic homogenate in presence of protease inhibitor", "setting": "[2]", "result": "41.5±24.6", "unit": "%"}
    ]},
    {"molecule": "O=S(=O)(F)Cc1ccccc1", "note": "[PMSF, Phenylmethylsulfonyl fluoride]", "values": [
      {"measurement": "percent neutrophil pseudopod formation (activation) by rat pancreatic homogenate in presence of protease inhibitor", "setting": "[2]", "result": "40.8±12.9", "unit": "%"}
    ]},
    {"molecule": "Cc1nnc2n1-c1sc3c(c1C(c1ccccc1Cl)=NC2)CC(C(=O)N1CCOCC1)C3", "note": "(centres unmarked) [WEB 2170]", "values": [
      {"measurement": "reduction of neutrophil activation by pancreatic or trypsin-incubated homogenates", "setting": "human neutrophils [3]; 5 μM, 50 μM, 500 μM", "result": "largely ineffective"}
    ]},
    {"molecule": "CSCC[C@H](NC=O)C(=O)N[C@@H](CC(C)C)C(=O)N[C@@H](Cc1ccccc1)C(=O)O", "note": "[fMLP, Formyl-methionyl-leucyl-phenylalanine]", "values": [
      {"measurement": "superoxide chemiluminescence of isolated neutrophils alone (no plasma)", "setting": "human neutrophils [1]", "result": "not particularly reactive"},
      {"measurement": "chemiluminescence in cell-free plasma", "setting": "human neutrophils [1]", "result": "unreactive"},
      {"measurement": "percent activation of twice-washed neutrophils by activator", "setting": "[2]; no inhibitor, pancreatic homogenate 50 μl (Control group) or fMLP 10^-7 M (positive control)", "result": 74, "unit": "%"}
    ]},
    {"molecule": "Phospholipase A2: from bovine pancreas, also degrades PAF", "values": [
      {"measurement": "intrinsic effect on neutrophils", "setting": "human neutrophils [3]; 1, 10, 20 U/ml", "result": "neutrophil stimulatory properties"}
    ]},
    {"molecule": "aprotinin", "values": [
      {"measurement": "percent neutrophil pseudopod formation (activation) by rat pancreatic homogenate in presence of protease inhibitor", "setting": "[2]", "result": "51±17.2", "unit": "%"}
    ]},
    {"molecule": "chymotrypsin", "values": [
      {"measurement": "plasma chemiluminescence activation by pancreatic proteases", "setting": "human neutrophils [1]", "result": "little activation"},
      {"measurement": "percent pseudopod formation, control solution incubated with the additive alone (no organ homogenate)", "setting": "[4]", "result": 42, "unit": "%"},
      {"measurement": "direct neutrophil activation by proteases / zymogen fragments (in words)", "setting": "[4]", "result": "did not result in neutrophil activation"}
    ]},
    {"molecule": "B1", "values": [
      {"measurement": "direct neutrophil activation by proteases / zymogen fragments (in words)", "setting": "[4]", "result": "not stimulatory towards neutrophils"}
    ]},
    {"molecule": "B2", "values": [
      {"measurement": "plasma chemiluminescence activation by pancreatic proteases", "setting": "human neutrophils [1]", "result": "little activation"},
      {"measurement": "percent pseudopod formation, control solution incubated with the additive alone (no organ homogenate)", "setting": "[4]", "result": "8.5±0.8", "unit": "%"},
      {"measurement": "direct neutrophil activation by proteases / zymogen fragments (in words)", "setting": "[4]", "result": "did not result in neutrophil activation"}
    ]}
  ]
}
